Results published in patent publication US20230398130A1, “METHODS AND COMPOSITIONS FOR DIFFERENTIATING STEM CELLS” (Massachusetts Institute of Technology, priority 2020, published 2023).

Columns and labels:
Assay type in all cases: cell-based, murine
ISC-enriched organoids [1] = experiment: Primary screen, 384-well 2.5-D organoid differentiation (ENR+CD, 6 days): carbachol-induced lysozyme secretion (LYZ.S); details: primary screen; for Z.LYZ.S: standard z score; for SSMD.LYZ.S: strictly standardized mean difference
Source text: High-throughput screening.

ISC-enriched organoids [2] = experiment: Secondary (validation) screen, 384-well 2.5-D, ENR+CD 6 days, n=8 wells, vs ENR+CD+DMSO control: ATP (CTG)
ISC-enriched organoids [3] = experiment: Secondary (validation) screen, 384-well 2.5-D, ENR+CD 6 days, n=8 wells, vs ENR+CD+DMSO control: carbachol-induced lysozyme secretion (LYZ.S)
lysozyme (LYZ) = experiment: Western blotting of lysozyme in 3D-cultured intestinal organoids; details: organoids cultured 6 days in ENR+CV, ENR+CD or ENR
Source text: Western blotting. ISC-enriched organoids cultured in 3D Matrigel with ENRCV media were passaged to 24-well plate in 3D Matrigel with ENRCV. At day zero, media were replaced to ENR or ENRCD with or without indicated compounds, and media were replaced every other day. At day six, cells were harvested from Matrigel by mechanical disruption and suspended in basal media. Cell pellets were lysed with Pierce© IP lysis buffer (ThermoFisher, 87787) containing Halt™ Protease Inhibitor Cocktail, EDTA-Free (ThermoFisher, 87785) after 3-minute centrifuge at 300×g at 4° C. Cell extracts were resolved by NuPAGE© SDS-PAGE Gel system (ThermoFisher) and electroblotted onto polyvinylidene difluoride membranes using Criterion™ Blotter (Biorad). The membranes were blocked with 2% Blotting-Grade Blocker (Biorad, 1706404) in TBS-T (50 mM Tris-HCl, 150 mM NaCl, and 0.1% Tween 20, pH 8.0) and then probed with appropriate antibodies. Detection was performed using ECL Select™ Western Blotting Detection Reagent (Amersham, 45-000-999) and ImageQuant LAS4000 (GE Healthcare).
Western blotting. Organoid-containing gel was homogenized in basal medium and centrifuged at 300 rcf for 3 min. Organoid pellet was lysed with ice-cold Pierce IP Lysis Buffer (Thermo Fisher Scientific, #87787) containing Halt Protease Inhibitor Cocktail, EDTA-Free (Thermo Fisher Scientific, #87785) and incubated on ice for 20 min. The lysate was centrifuged at 17,000 rcf for 10 min, and the supernatant was combined with NuPAGE LDS Sample Buffer (Thermo Fisher Scientific, NP0007). Protein concentration was determined by Pierce 660 nm Protein Assay (Thermo Fisher Scientific, #22660) and normalized to the lowest concentration among each sample set. […] Chemiluminescent signals were detected by LAS4000 (GE Healthcare) using Amersham ECL Select Western Blotting Detection Reagent (GE Healthcare, #45-000-999), and total protein signals were obtained by Odyssey Imaging System (LI-COR Biosciences) using REVERT Total Protein Stain Kit (LI-COR Biosciences, #926-11010).

intestinal organoids = experiment: Population RNA-sequencing of organoids
Procedure: Population RNA-sequencing. Population RNA-seq was performed using a derivative of the Smart-Seq2 protocol for single cells. In brief, organoid media was aspirated and RLT+BME (Qiagen) was added to each well, and plate shaken for 30 minutes to fully lyse. Lysate was aliquoted into 4 identical fractions and stored at −80° C. until reverse transcription. RNA lysate was thawed and cleaned with a 2.2×SPRI ratio using Agencourt RNAClean XP beads (Beckman Coulter, A63987). RNA-seq was performed on a bulk population of […] using Smart-Seq2 chemistry, starting with a 2.2×SPRI ratio cleanup. After oligo-dT priming, Maxima H Minus Reverse Transcriptase (ThermoFisher EP0753) was used to synthesize cDNA with an elongation step at 52° C. before PCR amplification (15 cycles for tissue, 18 cycles for sorted basal cells) using KAPA HiFi PCR Mastermix (Kapa Biosystems KK2602). Sequencing libraries were prepared using the Nextera XT DNA tagmentation kit (Illumina FC-131-1096) with 250 pg input for each sample. Libraries were pooled post-Nextera and cleaned using Agencourt AMPure SPRI beads with successive 0.7× and 0.8× ratio SPRIs and sequenced with an Illumina 75 Cycle NextSeq500/550v2 kit (Illumina FC-404-2005) with loading density at 2.2 pM, with paired end 35 cycle read structure. Samples were sequenced at an average read depth of 8.44 million reads per sample and a total of 96 samples.
Organoid samples were aligned to the Mm10 genome and transcriptome using STAR and RSEM. […] For module scoring with the in vivo Paneth and enteroendocrine cell-defining genes, Applicants used previously published gene sets and computed persample module scores through the Seurat package.

[4] = 1st of the 4 dose lines of the treatment (dose not given)
[5] = 2nd of the 4 dose lines of the treatment (dose not given)
[6] = 3rd of the 4 dose lines of the treatment (dose not given)
[7] = 4th of the 4 dose lines of the treatment (dose not given)

**Q.** What does the source list for `O=C(/C=C\n1cnc(-c2cc(C(F)(F)F)cc(C(F)(F)F)c2)n1)NNc1cnccn1` [KPT-330]?
**A.** Z.LYZ.S (ISC-enriched organoids [1]; [4]): 1.677; Z.LYZ.S (ISC-enriched organoids [1]; [5]): −1.821; Z.LYZ.S (ISC-enriched organoids [1]; [6]): −2.523; Z.LYZ.S (ISC-enriched organoids [1]; [7]): −2.733; SSMD.LYZ.S (ISC-enriched organoids [1]; [4]): 1.329; SSMD.LYZ.S (ISC-enriched organoids [1]; [5]): −0.894; SSMD.LYZ.S (ISC-enriched organoids [1]; [6]): −1.575; SSMD.LYZ.S (ISC-enriched organoids [1]; [7]): −1.599; Z.CTG (ISC-enriched organoids [2]; Dose 0.02 uM): 1.135; repSSMD.CTG (ISC-enriched organoids [2]; Dose 0.02 uM): 0.959; Z.CTG (ISC-enriched organoids [2]; Dose 0.04 uM): 0.263; repSSMD.CTG (ISC-enriched organoids [2]; Dose 0.04 uM): 0.179; Z.CTG (ISC-enriched organoids [2]; dose 0.08 uM): 1.273; repSSMD.CTG (ISC-enriched organoids [2]; dose 0.08 uM): 0.916; Z.LYZ.S (ISC-enriched organoids [3]; Dose 0.02 uM): −0.028; repSSMD.LYZ.S (ISC-enriched organoids [3]; Dose 0.02 uM): −0.044; Z.LYZ.S (ISC-enriched organoids [3]; Dose 0.04 uM): −0.587; repSSMD.LYZ.S (ISC-enriched organoids [3]; Dose 0.04 uM): −0.955; Z.LYZ.S (ISC-enriched organoids [3]; dose 0.08 uM): 1.031; repSSMD.LYZ.S (ISC-enriched organoids [3]; dose 0.08 uM): 1.678; increase in LYZ.S (stimulated LYZ secretion) relative to ENR+CD control (ISC-enriched organoids [3]; validated doses, secondary screen): 50-75%; LYZ abundance per unit protein (Western blotting) (lysozyme (LYZ)): appreciably increase LYZ abundance; secretory cell identity (Paneth, goblet, EEC) from bulk transcripts (intestinal organoids; ENR+CV, ENR+CD or ENR organoids): increase secretory cells (Paneth, goblet, and EEC); number of differentially expressed genes (intestinal organoids; hits compared, ENR and ENR+CD): the most differentially expressed genes
